One experiment deals with cholesteryl esters. The experiment can be described thus: In Vivo Assay of Hypolipidemic Agents Using the Hyperlipidemic Hamster. The following applies: Mesocricetus auratus, po, 168 h, oral gavage once daily, 7 days, versus control, read-out: % Reduction in cholesteryl esters; for change in vivo at 50 mg/kg: 50 mpk; for change in vivo at 100 mg/kg: 100 mpk. The protocol:
In Vivo Assay of Hypolipidemic Agents Using the Hyperlipidemic Hamster
Hamsters are separated into groups of six and given a control cholesterol diet (Pudna Chow #5001 containing 0.5% cholesterol) for seven days. Diet consumption is monitored to determine dietary cholesterol exposure in the face of test compounds. The animals are dosed with the test compound once daily beginning with the initiation of diet. Dosing is by oral gavage of 0.2 mL of corn oil alone (control group) or solution (or suspension) of test compound in corn oil. All animals moribund or in poor physical condition are euthanized. After seven days, the animals are anesthetized by […] of ketamine and sacrificed by decapitation. Blood is collected into vacutainer tubes containing EDTA for plasma lipid analysis and the liver excised for tissue lipid analysis. Data is reported as percent reduction of lipid versus control.
(§1) Using the assay methods described above, the compounds of Examples 1-9 were tested for in vitro ACAT inhibitory activity and for the ability to lower the level of cholesteryl esters in vivo.

Another experiment relates to ACAT. Put plainly: ACAT Assay (in vitro). Type of experiment: biochemical. To be noted: dose = 10 μM; rat liver microsomes. The procedure:
This assay measures the activity of ACAT by measuring the ACAT-mediated transfer of tritiated oleic acid from acyl-CoA to cholesterol to give labelled cholesterol oleate. Rat liver microsomes are used as the source of ACAT. Assays are performed in round bottom microtiterplates using a total incubation volume of 50 μL. Each incubation well receives 10 μL assay buffer (0.5M KHPO4, 10 μM dithiothreitol, pH 7.4), 7.5 μL of 40 mg/mL BSA (Bovine Serum Albumin) and 12.5 μg of microsomal protein. The test compound (in sufficient amount to bring the final concentration to from 0.1 to 25 μM), reference compound, or vehicle control is added and the final volume brought to 47 μL. The microtiterplate is then floated on the surface of a 37° C. water bath for fifteen minutes. Incubations are started by the addition of 3 μL ^3 H-acyl CoA (1 μCi/well, final concentration of 10 μM acyl CoA). The plate is then returned to the water bath for 15 minutes. The incubations are then terminated by application of 15 μL from each incubation to individual lanes on a thin layer plate (Silica Gel GF 20×20 cm). Standards are applied to several lanes so that the cholesterol ester band can be identified. After drying, the plates are eluted with 90:10:1 petroleum ether:ether:HOAc. The standards are visualized via iodine vapor, and the regions corresponding to cholesterol ester are scraped into 7 mL scintillation vials. 4 mL of scintillant are added to each vial, and the radioactivity quantified. Background count is determined by the boiled controls. Full activity is determined by activity in the presence of vehicle. The percent inhibition is calculated by subtracting the background from both control and test samples, and the test value is calculated as a percentage of the control. For IC50 determinations, the inhibition is plotted against drug doses on a log scale and the concentration at which 50% inhibition is obtained is determined.
as §1

Consider `Cc1cc([C@H]2Cc3ccccc3[C@H]2NC(=O)C(c2ccccc2)c2ccccc2)ccc1O` (single isomer, unassigned) [Example 9, (+)-cis-N-[2-(4'-hydroxy-3'-methylphenyl)indanyl]-α-phenylbenzeneacetamide], for which the change in vivo at 50 mg/kg with cholesteryl esters is -66%. For the same molecule, the “ACAT % Inhibition” value in the experiment with ACAT worked out at 98%.
For `O=C(N[C@@H]1c2ccccc2C[C@@H]1c1ccc(O)c(Cl)c1)C(c1ccccc1)c1ccccc1` (relative stereo) [Example 8, cis-N-[2-(3'-chloro-4'-hydroxyphenyl)indanyl]-α-phenylbenzeneacetamid], the change in vivo at 50 mg/kg in the experiment on cholesteryl esters is -40%. In the experiment with ACAT, the “ACAT % Inhibition” value was determined as 99%.
In the case of `CCCCCCCC/C=C\CCCCCCCC(=O)N[C@H]1c2ccccc2CC[C@H]1c1ccc(OC)cc1` (relative stereo) [Example 2G], the change in vivo at 100 mg/kg in the experiment on cholesteryl esters turned out to be 0%. The “ACAT % Inhibition” value in the experiment with ACAT came to 73%.
On to `O=C(N[C@@H]1c2ccccc2C[C@@H]1c1cc(Cl)c(O)c(Cl)c1)C(c1ccccc1)c1ccccc1` (relative stereo) [Example 8A, cis-N-[2-(3',5'-dichloro-4'-hydroxyphenyl)indanyl]-α-phenylbenzeneacetamide], for which the change in vivo at 50 mg/kg in the experiment on cholesteryl esters was -14%. In the experiment on ACAT, the “ACAT % Inhibition” value turned out to be 99%.
As to `COc1ccc([C@H]2CCc3ccccc3[C@@H]2NC(=O)N(c2ccccc2)c2ccccc2)cc1` (relative stereo) [Example 6, trans-N'-[2-(4'-methoxyphenyl)-1,2,3,4-tetrahydronaphthalen-1-yl]-N,N-diphenylurea], in the experiment on cholesteryl esters, the change in vivo at 50 mg/kg was -16%. Further, in the experiment with ACAT, the “ACAT % Inhibition” value stood at 97%.
`CCCCCCCCCC(C)(C)C(=O)N[C@@H]1c2ccccc2CC[C@H]1c1ccc(O)cc1` (relative stereo) [Example 3H]: the change in vivo at 50 mg/kg in the experiment with cholesteryl esters is 0%. Moreover, the “ACAT % Inhibition” value in the experiment with ACAT is listed as 86%.
Take `O=C(N[C@@H]1c2ccccc2C[C@@H]1c1ccc(O)c(Br)c1)C(c1ccccc1)c1ccccc1` (single isomer, unassigned) [Example 7, (+)-cis-N-[2-(3'-bromo-4'-hydroxyphenyl]indanyl]-α-phenylbenzeneacetamide]: the change in vivo at 50 mg/kg in the experiment on cholesteryl esters was -40%. Besides, in the experiment with ACAT, the “ACAT % Inhibition” value was determined as 100%.
Take `CCCCCCCC/C=C\CCCCCCCC(=O)N[C@@H]1c2ccccc2CC[C@H]1c1ccc(O)cc1` (relative stereo) [Example 4, trans-N-[2-(4'-hydroxyphenyl)-1,2,3,4-tetrahydronaphth-1-yl]oleamide]: in the experiment with cholesteryl esters, the change in vivo at 50 mg/kg came to 0%. In addition, in the experiment with ACAT, the “ACAT % Inhibition” value is given as 94%.
Regarding `O=C(N[C@@H]1c2cc(O)ccc2C[C@@H]1c1ccccc1)C(c1ccccc1)c1ccccc1` (relative stereo) [Example 3W], the change in vivo at 50 mg/kg in the experiment on cholesteryl esters turned out to be 14%. Also, the “ACAT % Inhibition” value in the experiment with ACAT is given as 84%.
Turning to `CCCCCCCC/C=C\CCCCCCCC(=O)N[C@H]1c2ccccc2CC[C@@H]1c1ccccc1` (relative stereo) [Example 2M], in the experiment with cholesteryl esters, the change in vivo at 100 mg/kg was determined as 0%. In the experiment with ACAT, the “ACAT % Inhibition” value is reported as 99%.
In the case of `O=C(N[C@@H]1c2cc(O)ccc2CC[C@H]1c1ccccc1)C(c1ccccc1)c1ccccc1` (relative stereo) [Example 3Q], the change in vivo at 50 mg/kg in the experiment with cholesteryl esters is -78%. In the experiment with ACAT, the “ACAT % Inhibition” value was determined as 94%.
The corresponding values for `COc1ccc([C@@H]2CCCc3ccccc3[C@@H]2NC(=O)C(c2ccccc2)c2ccccc2)cc1` (relative stereo) [Example 1H] are 0% and 84%.
For the molecule `O=C(N[C@@H]1c2ccccc2C[C@@H]1c1cccc(O)c1)C(c1ccccc1)c1ccccc1` (relative stereo) [Example 3B], the change in vivo at 50 mg/kg with cholesteryl esters was 0%. Further, the “ACAT % Inhibition” value in the experiment on ACAT is listed as 97%.
The corresponding values for `O=C(N[C@@H]1c2ccccc2CC[C@H]1c1cccc(O)c1)C(c1ccccc1)c1ccccc1` (relative stereo) [Example 3D] are 0% and 98%.

Values taken from patent publication US5416118A, “Bicyclic amides as inhibitors of acyl-coenzyme A: cholesterol acyl transferase” (Schering Corporation, priority 1993, dated 1995).
